# According to ChEMBL document CHEMBL3124779, “Discovery of ABT-267, a pan-genotypic inhibitor of HCV NS5A” (J Med Chem, 2014):
# Tests used:
# Hepatitis C virus [1] = experiment: Ratio of EC50 for HCV1b Con1 infected in human HuH7 cells in presence of 40% human plasma to EC50 for HCV1b Con1 infected in human HuH7 cells in absence of 40% human plasma; assay type: functional, Hepacivirus hominis, isolate Con1, Huh-7
# Hepatitis C virus [2] = experiment: Ratio of EC50 for HCV1a H77 infected in human HuH7 cells in presence of 40% human plasma to EC50 for HCV1a H77 infected in human HuH7 cells in absence of 40% human plasma; assay type: functional, Hepacivirus hominis, genotype 1a H77, Huh-7
# Hepatitis C virus [3] = experiment: Antiviral activity against HCV1b Con1 infected in human HuH7 cells assessed as inhibition of viral replication after 4 days by luciferase reporter gene assay in presence of 40% human plasma; assay type: functional, organism-based, Hepacivirus hominis; details: isolate Con1, Huh-7, Plasma, 96 h
# Hepatitis C virus [4] = experiment: Antiviral activity against HCV1a H77 infected in human HuH7 cells assessed as inhibition of viral replication after 4 days by luciferase reporter gene assay in presence of 40% human plasma; assay type: functional, organism-based, Hepacivirus hominis; details: genotype 1a H77, Huh-7, Plasma, 96 h
# Hepatitis C virus [5] = experiment: Antiviral activity against HCV1a H77 infected in human HuH7 cells assessed as inhibition of viral replication after 4 days by luciferase reporter gene assay; assay type: functional, organism-based, Hepacivirus hominis; details: genotype 1a H77, Huh-7, 96 h
# Hepatitis C virus [6] = experiment: Antiviral activity against HCV1b Con1 infected in human HuH7 cells assessed as inhibition of viral replication after 4 days by luciferase reporter gene assay; assay type: functional, organism-based, Hepacivirus hominis; details: isolate Con1, Huh-7, 96 h
Compound,Ratio EC50 (Hepatitis C virus [1]),Ratio EC50 (Hepatitis C virus [2]),EC50 (Hepatitis C virus [3]) [nM],EC50 (Hepatitis C virus [4]) [nM],EC50 (Hepatitis C virus [5]) [nM],EC50 (Hepatitis C virus [6]) [nM]
COC(=O)N[C@H](C(=O)N1CCC[C@H]1C(=O)Nc1ccc([C@H]2CC[C@@H](c3ccc(NC(=O)[C@@H]4CCCN4C(=O)[C@@H](NC(=O)OC)C(C)(C)C)cc3)N2c2ccc(F)cc2)cc1)C(C)(C)C,9,17,0.278,103,6.22,0.032
CC[C@H](NC(=O)OC)C(=O)N1CCC[C@H]1C(=O)Nc1ccc([C@@H]2CC[C@@H](c3ccc(NC(=O)[C@@H]4CCCN4C(=O)[C@H](CC)NC(=O)OC)cc3)N2c2ccc(F)cc2)cc1,7,7,1,34,4.6,0.14
COC(=O)N[C@H](C(=O)N1CCC[C@H]1C(=O)Nc1ccc([C@@H]2CC[C@@H](c3ccc(NC(=O)[C@@H]4CCCN4C(=O)[C@@H](NC(=O)OC)C(C)C)cc3)N2c2ccc(OC)cc2)cc1)C(C)C,6,6,0.447,5.92,0.992,0.076
COC(=O)N[C@H](C(=O)N1CCC[C@H]1C(=O)Nc1ccc([C@@H]2CC[C@@H](c3ccc(NC(=O)[C@@H]4CCCN4C(=O)[C@@H](NC(=O)OC)C(C)(C)C)cc3)N2c2ccc(C(F)(F)F)cc2)cc1)C(C)(C)C,24,42,0.211,4.14,0.099,0.0088
COC(=O)N[C@H](C(=O)N1CCC[C@H]1C(=O)Nc1ccc([C@H]2CC[C@H](c3ccc(NC(=O)[C@@H]4CCCN4C(=O)[C@@H](NC(=O)OC)C(C)(C)C)cc3)N2c2ccc(C(F)(F)F)cc2)cc1)C(C)(C)C,17,17,0.184,14.3,0.829,0.011
COC(=O)N[C@H](C(=O)N1CCC[C@H]1C(=O)Nc1ccc([C@H]2CC[C@H](c3ccc(NC(=O)[C@@H]4CCCN4C(=O)[C@@H](NC(=O)OC)C(C)C)cc3)N2c2ccc(C3CC3)cc2)cc1)C(C)C,13,10,0.114,1.68,0.164,0.0087
COC(=O)N[C@H](C(=O)N1CCC[C@H]1C(=O)Nc1ccc([C@@H]2CC[C@@H](c3ccc(NC(=O)[C@@H]4CCCN4C(=O)[C@@H](NC(=O)OC)C(C)C)cc3)N2c2ccc(C(C)(C)CO)cc2)cc1)C(C)C,10,13,0.948,1.47,0.116,0.095
COC(=O)N[C@H](C(=O)N1CCC[C@H]1C(=O)Nc1ccc([C@H]2CC[C@H](c3ccc(NC(=O)[C@@H]4CCCN4C(=O)[C@@H](NC(=O)OC)C(C)(C)C)cc3)N2c2ccc(S(C)(=O)=O)cc2)cc1)C(C)(C)C,15,42,3.42,27.6,0.659,0.226
COC(=O)N[C@H](C(=O)N1CCC[C@H]1C(=O)Nc1ccc([C@@H]2CC[C@@H](c3ccc(NC(=O)[C@@H]4CCCN4C(=O)[C@@H](NC(=O)OC)C(C)C)cc3)N2c2ccc(-c3cccnc3)cc2)cc1)C(C)C,9,18,0.597,2.57,0.143,0.069
COC(=O)N[C@H](C(=O)N1CCC[C@H]1C(=O)Nc1ccc([C@H]2CC[C@H](c3ccc(NC(=O)[C@@H]4CCCN4C(=O)[C@@H](NC(=O)OC)C(C)(C)C)cc3)N2c2ccc(N3CCOCC3)cc2)cc1)C(C)(C)C,8,9,1.6,11.2,1.24,0.211
COC(=O)N[C@H](C(=O)N1CCC[C@H]1C(=O)Nc1ccc(CN(Cc2ccc(NC(=O)[C@@H]3CCCN3C(=O)[C@@H](NC(=O)OC)C(C)C)cc2)c2ccc(F)cc2)cc1)C(C)C,,,,,38,0.4
COC(=O)N[C@H](C(=O)N1CCC[C@H]1C(=O)Nc1ccc([C@@H]2CC[C@@H](c3ccc(NC(=O)[C@@H]4CCCN4C(=O)[C@@H](NC(=O)OC)C(C)C)cc3)N2)cc1)C(C)C,,,,,253,282
COC(=O)N[C@H](C(=O)N1CCC[C@H]1C(=O)Nc1ccc([C@H]2CC[C@@H](c3ccc(NC(=O)[C@@H]4CCCN4C(=O)[C@@H](NC(=O)OC)C(C)C)cc3)N2c2ccc(F)cc2)cc1)C(C)C,3,4,0.3,81,22,0.09
CC[C@H](C)[C@H](NC(=O)OC)C(=O)N1CCC[C@H]1C(=O)Nc1ccc([C@@H]2CC[C@@H](c3ccc(NC(=O)[C@@H]4CCCN4C(=O)[C@@H](NC(=O)OC)[C@@H](C)CC)cc3)N2c2ccc(F)cc2)cc1 (mixture of isomers),6,7,0.171,9.79,1.31,0.03
CC[C@@H](C)[C@H](NC(=O)OC)C(=O)N1CCC[C@H]1C(=O)Nc1ccc([C@@H]2CC[C@@H](c3ccc(NC(=O)[C@@H]4CCCN4C(=O)[C@@H](NC(=O)OC)[C@H](C)CC)cc3)N2c2ccc(F)cc2)cc1 (mixture of isomers),9,32,0.09,6.56,0.202,0.01
COC(=O)N[C@H](C(=O)N1CCC[C@H]1C(=O)Nc1ccc([C@@H]2CC[C@@H](c3ccc(NC(=O)[C@@H]4CCCN4C(=O)[C@@H](NC(=O)OC)c4ccccc4)cc3)N2c2ccc(F)cc2)cc1)c1ccccc1 (mixture of isomers),37,22,0.073,22.8,1.06,0.002
COC(=O)N[C@H](C(=O)N1CCC[C@H]1C(=O)Nc1ccc([C@@H]2CC[C@@H](c3ccc(NC(=O)[C@@H]4CCCN4C(=O)[C@@H](NC(=O)OC)C(C)(C)O)cc3)N2c2ccc(F)cc2)cc1)C(C)(C)O (mixture of isomers),52,30,2.6,18,0.6,0.05
COC(=O)N[C@H](C(=O)N1CCC[C@H]1C(=O)Nc1ccc([C@@H]2CC[C@@H](c3ccc(NC(=O)[C@@H]4CCCN4C(=O)[C@@H](NC(=O)OC)C(C)C)cc3)N2c2ccc(C)cc2)cc1)C(C)C (mixture of isomers),5,6,0.204,4.36,0.72,0.04
COC(=O)N[C@H](C(=O)N1CCC[C@H]1C(=O)Nc1ccc([C@@H]2CC[C@@H](c3ccc(NC(=O)[C@@H]4CCCN4C(=O)[C@@H](NC(=O)OC)C(C)C)cc3)N2c2ccc(Cl)cc2)cc1)C(C)C (mixture of isomers),10,11,0.3,4.07,0.37,0.03
COC(=O)N[C@H](C(=O)N1CCC[C@H]1C(=O)Nc1ccc([C@@H]2CC[C@@H](c3ccc(NC(=O)[C@@H]4CCCN4C(=O)[C@@H](NC(=O)OC)C(C)C)cc3)N2c2ccc(Br)cc2)cc1)C(C)C (mixture of isomers),13,16,0.089,4.46,0.286,0.0068
COC(=O)N[C@H](C(=O)N1CCC[C@H]1C(=O)Nc1ccc([C@@H]2CC[C@@H](c3ccc(NC(=O)[C@@H]4CCCN4C(=O)[C@@H](NC(=O)OC)C(C)C)cc3)N2c2ccc(O)cc2)cc1)C(C)C (mixture of isomers),9,11,59.5,242,23,6.54
COC(=O)N[C@H](C(=O)N1CCC[C@H]1C(=O)Nc1ccc([C@@H]2CC[C@@H](c3ccc(NC(=O)[C@@H]4CCCN4C(=O)[C@@H](NC(=O)OC)C(C)C)cc3)N2c2ccc(C(C)C)cc2)cc1)C(C)C (mixture of isomers),11,21,0.086,0.706,0.033,0.0079
COC(=O)N[C@H](C(=O)N1CCC[C@H]1C(=O)Nc1ccc([C@@H]2CC[C@@H](c3ccc(NC(=O)[C@@H]4CCCN4C(=O)[C@@H](NC(=O)OC)C(C)C)cc3)N2c2ccc(-c3ccccc3)cc2)cc1)C(C)C (mixture of isomers),23,19,0.256,1.69,0.89,0.011
